According to ChEMBL document CHEMBL3507680, “University of Dundee, Gates Library screen for HepG2 cell viability”:

Assay: Human HepG2 cell viability assay in 384 well format
Format: toxicity, cell-based
Set-up: dose 125 nL, time 70.5 hour; concentration not given beside the values
Details: HepG2 cells, read-out: Inhibition
`Cc1ccc2c(n1)N(CCn1cccn1)CCN(C1CCOCC1)C2` gave a cytotoxicity at 70.5 h of -5.52%. For `Cn1cnc2c1C(COCC1CC1)CN(Cc1ccsc1)C2` (stereo not drawn), the cytotoxicity at 70.5 h was 5.05%. `CNC(=O)CN1CCOCC2(C1)CN(Cc1csnn1)CCO2` (stereo not drawn) showed a cytotoxicity at 70.5 h of 12.8%. `c1ccc(-c2nc3c(c(NCc4n[nH]c5c4CCC5)n2)CCNC3)cc1` showed a cytotoxicity at 70.5 h of 12.6%. `CC(C(=O)O)N1CCc2onc(-c3ccc(F)c(F)c3)c2C1` (stereo not drawn) showed a cytotoxicity at 70.5 h of -6.87%. Work on `Cc1cc(C(=O)Nc2ccn(CCCN3CCCC3)n2)c(C)o1` yielded a cytotoxicity at 70.5 h of -0.537%. In the case of `Cc1ccsc1CN(CCN(C)C)C(=O)c1cc2ccccc2[nH]1`, the cytotoxicity at 70.5 h is reported as 4.92%. In the case of `CN(C)c1nccc(CNC(=O)NCc2ccco2)n1`, the cytotoxicity at 70.5 h is reported as -8.38%. `Cc1ccc(S(=O)(=O)N2CCN(CCCn3ccnc3)CC2)cc1` showed a cytotoxicity at 70.5 h of -1.75%. With `NC(=O)C1CCN(CCc2ccc(NC(=O)C3CCC3)cc2)CC1` the cytotoxicity at 70.5 h was -1.87%. For `COc1ccccc1N1CCN(CC(=O)NC(C)c2ccco2)CC1` (stereo not drawn), the cytotoxicity at 70.5 h was -5.63%. `CC(C)n1c2ccccc2c2c1cc(C(=O)N(C)C)n2C(=O)N(C)C` gave a cytotoxicity at 70.5 h of -0.266%. `COCCCNC(=O)NCc1ccc(N2CCOC(C)C2)nc1` (stereo not drawn) gave a cytotoxicity at 70.5 h of 17.1%. For `O=C(Cc1cnc(-c2c(Cl)cccc2Cl)s1)N1CCOCC1`, the cytotoxicity at 70.5 h was -13.9%. `CCn1c(C2CCN(Cc3cc(C)n(NC(C)=O)c3C)CC2)n[nH]c1=O` showed a cytotoxicity at 70.5 h of -4.98%. With `Clc1cnccc1N1CCCC2(CCCOC2)C1` (stereo not drawn) the cytotoxicity at 70.5 h was 1.82%. Work on `c1ccc(-n2ccc(CN3CCCC(Cn4cncn4)C3)n2)cc1` (stereo not drawn) yielded a cytotoxicity at 70.5 h of 0.226%. `CC(C)c1cccc(CSc2nnc(Cn3cncn3)o2)n1` gave a cytotoxicity at 70.5 h of -7.35%. `Cc1nccc(NCc2cc3n(n2)CCCN(C(=O)C2CCC2)C3)n1` gave a cytotoxicity at 70.5 h of 13.7%. With `Cc1cc(C(F)(F)F)nn1C(C)C(=O)Nc1ccc(Cl)cn1` (stereo not drawn) the cytotoxicity at 70.5 h was -6.74%. Work on `O=C(C1CCCCC1)N1CCCC([C@@H]2C[C@H](C(F)F)n3ncnc3N2)C1` (stereo partly drawn) yielded a cytotoxicity at 70.5 h of -5.82%. Work on `CN1CCN(Cc2cccc(NCc3cc[nH]n3)c2)CC1` yielded a cytotoxicity at 70.5 h of -5.29%. For `COc1cccc(NC(=O)N(CCO)C2CCc3ccccc32)c1` (stereo not drawn), the cytotoxicity at 70.5 h was -0.598%. `COc1ccnc(N2CCC3(CC2)[C@H](O)C[C@@H]3OCCN(C)C)n1` gave a cytotoxicity at 70.5 h of 2.31%. In the case of `c1nc(CSc2nnc(C3CC3)s2)cs1`, the cytotoxicity at 70.5 h is reported as 1.83%. For `CCCc1nnc2sc(CC3CN(Cc4ccccc4)CCO3)nn12` (stereo not drawn), the cytotoxicity at 70.5 h was -8.68%. In the case of `CN(C)S(=O)(=O)N1CCC(c2c(C(N)=O)sc3ccccc23)C1` (stereo not drawn), the cytotoxicity at 70.5 h is reported as -3.67%. `CCOc1ccc(CNCC(O)c2ccccc2)cc1Cl` (stereo not drawn) showed a cytotoxicity at 70.5 h of -4.88%. Compound `NCC1(c2cccc(C(F)(F)F)c2)CCCCC1` has a cytotoxicity at 70.5 h of -4.79%. `Cc1ccc(CN2CCC3(CCCN(S(C)(=O)=O)C3)C2)o1` (stereo not drawn) gave a cytotoxicity at 70.5 h of -12.7%. `CCCN1CCC(NC(=O)c2csc(C)c2C)CC1` showed a cytotoxicity at 70.5 h of -7.88%. `CN(CCc1cccs1)C(=O)Nc1cccc(S(C)(=O)=O)c1` gave a cytotoxicity at 70.5 h of -2.36%. Work on `Cc1nc(O)cc(CNC(=O)CC[C@@H]2CCCN3CCCC[C@H]23)n1` yielded a cytotoxicity at 70.5 h of -9.94%. `COC(=O)C(NC(=O)c1ccc(C)cc1C)c1cccnc1` (stereo not drawn) showed a cytotoxicity at 70.5 h of -7.04%. In the case of `O=C(CN1CCOCC1)N1CCC(c2cc(N3CCCC3)ncn2)CC1`, the cytotoxicity at 70.5 h is reported as -3.77%. In the case of `COc1cc(Br)c(CNC2CCCNC2=O)cc1OC` (stereo not drawn), the cytotoxicity at 70.5 h is reported as -0.0651%. Compound `CCc1ccc(CNc2cc(-c3ccoc3C)nn2CCO)o1` has a cytotoxicity at 70.5 h of -18.9%. Work on `O=C(Cc1ccccc1)C1CCCN(Cc2cncn2C2CCCC2)C1` (stereo not drawn) yielded a cytotoxicity at 70.5 h of -7.77%. Work on `COc1cccc2c1OCC(C(=O)NCCCn1nc(C)c(Cl)c1C)C2` (stereo not drawn) yielded a cytotoxicity at 70.5 h of -7.76%. `Cc1ccc(S(=O)(=O)N2CCC(O)(CN(C)C)C2)cc1` (stereo not drawn) gave a cytotoxicity at 70.5 h of -4.32%. With `CCc1nnc2n1CCN(Cc1nnc(-c3occc3C)o1)C2` the cytotoxicity at 70.5 h was -4.81%. Work on `O=C(c1cnccn1)N1CCN2C[C@H](OCC3CC3)C[C@H]2C1` yielded a cytotoxicity at 70.5 h of 4.98%. In the case of `Cc1ccc(C2CSCCN2C(=O)c2cnsn2)o1` (stereo not drawn), the cytotoxicity at 70.5 h is reported as -10.7%. Compound `c1cnc(N2CCCn3c(nnc3Cn3cccn3)C2)nc1` has a cytotoxicity at 70.5 h of 1.91%. `CN(C)C(=O)CN1C[C@@H]2CC[C@H](C1)N(Cc1ccccc1C#N)C2` showed a cytotoxicity at 70.5 h of -11%. `CSc1ccc(CNC(=O)NCC(O)c2cccc(F)c2)cc1` (stereo not drawn) showed a cytotoxicity at 70.5 h of -7.86%. Work on `Cc1cccc(C(=O)N2CCN(S(C)(=O)=O)[C@@H](C)C2)c1C` yielded a cytotoxicity at 70.5 h of -0.781%. Compound `COc1ccc(CNc2nnc(CC(C)(C)C)o2)cc1C#N` has a cytotoxicity at 70.5 h of -3.97%. Compound `Fc1cnc(N2CCO[C@H]3CN(CC4CCCCC4)C[C@H]32)nc1` has a cytotoxicity at 70.5 h of 17.9%. Work on `Cc1cnn(CCC(=O)N2CCN(c3nc(C)cs3)CC2)c1` yielded a cytotoxicity at 70.5 h of 30.3%. In the case of `c1ncn(CC2CN(Cc3nc(C4CC4)no3)CCO2)n1` (stereo not drawn), the cytotoxicity at 70.5 h is reported as 17.2%. For `COc1ccc(OCCN(C)C(=O)c2ccc(OC)cc2O)cc1`, the cytotoxicity at 70.5 h was -9.58%. Work on `Cn1cc(CNC2CCCOc3c2ccc2ccccc32)cn1` (stereo not drawn) yielded a cytotoxicity at 70.5 h of 2.1%. In the case of `COC(=O)CNC(=O)Cn1ccc2cccc(OC)c21`, the cytotoxicity at 70.5 h is reported as 7.12%. Compound `CN(CCNc1cc(N2CCCC2CO)ncn1)Cc1ccccc1` (stereo not drawn) has a cytotoxicity at 70.5 h of -3.62%. `CN(C)CCn1c2c(ccc1=O)CC(NC(=O)NC1CCCC1)CC2` (stereo not drawn) gave a cytotoxicity at 70.5 h of -6.88%. In the case of `CCC(CC)C(=O)NS(=O)(=O)CCc1ccccc1`, the cytotoxicity at 70.5 h is reported as -23.7%. Work on `CC(C(=O)N1CCCN(c2ccc(C#N)cc2)CC1)n1cccn1` (stereo not drawn) yielded a cytotoxicity at 70.5 h of -3.9%. For `Cc1ccc(NCCCNC(=O)C2CC3(CCNCC3)CN2C)nc1` (stereo not drawn), the cytotoxicity at 70.5 h was -10.5%. Compound `Cc1cn2c(n1)CCC(NC(=O)COCCOc1ccccc1)C2` (stereo not drawn) has a cytotoxicity at 70.5 h of -8.88%. Work on `CN(Cc1cccnc1)CC1CC12CCN(c1nncs1)CC2` (stereo not drawn) yielded a cytotoxicity at 70.5 h of -12.3%. Compound `CCc1c(C)nc(C2CCCN2C(=O)c2cc(C)no2)nc1O` (stereo not drawn) has a cytotoxicity at 70.5 h of 10.5%. Compound `Cc1ccc(NC2CCN(C(=O)c3cc[nH]n3)CC2)nn1` has a cytotoxicity at 70.5 h of -11%. With `CC1CCCN(C(=O)c2ccn(COc3ccccc3)n2)C1` (stereo not drawn) the cytotoxicity at 70.5 h was 12.9%. Compound `CC(=O)Nc1ccc(CNC2COc3c2ccc(C)c3C)cc1` (stereo not drawn) has a cytotoxicity at 70.5 h of 15.7%. With `C=C(C)CN1CCC(NC(=O)NCCc2ccc(N(C)C)cc2)CC1` the cytotoxicity at 70.5 h was 12.7%. For `Cc1cccc(CN2CCOC(C)(C(=O)N3CCOCC3)C2)n1` (stereo not drawn), the cytotoxicity at 70.5 h was 11%. With `COc1ccc(Cn2c(CCc3c(C)n[nH]c3C)n[nH]c2=O)cc1` the cytotoxicity at 70.5 h was -3.26%. `COc1cccc2c1OCC(CNC(=O)CSc1ccccn1)C2` (stereo not drawn) gave a cytotoxicity at 70.5 h of -6.38%. For `CCN1CCC12CCN(C(=O)c1cc(C)on1)C2` (stereo not drawn), the cytotoxicity at 70.5 h was -2.64%. Compound `COc1cccc(CC(=O)N2CCCC(c3nncn3C)C2)c1` (stereo not drawn) has a cytotoxicity at 70.5 h of -12.3%. With `CC[C@H]1CN2CC[C@H]1C[C@@H]2CNC(=O)Nc1ccc(Br)cc1` the cytotoxicity at 70.5 h was -0.477%. `CC(C)(C)c1nc(CN2CCOC(Cn3cncn3)C2)cs1` (stereo not drawn) showed a cytotoxicity at 70.5 h of 1.47%. For `CN(C)S(=O)(=O)NCc1cccnc1Oc1ccccc1F`, the cytotoxicity at 70.5 h was 1.78%. For `c1ccc(Cc2noc(-c3ccc(NCC4CCCOC4)nc3)n2)cc1` (stereo not drawn), the cytotoxicity at 70.5 h was -2.44%. In the case of `CCSc1ccccc1C(=O)N1CCC(S(=O)(=O)c2nncn2C)CC1`, the cytotoxicity at 70.5 h is reported as -5.86%. Compound `CC1CCCN(Cc2c(C3CC3)n(CC(=O)N(C)C)c3ncccc23)C1` (stereo not drawn) has a cytotoxicity at 70.5 h of 27.3%. With `Cc1oc(-c2ccoc2)nc1CN1CCCCC1CCn1cccn1` (stereo not drawn) the cytotoxicity at 70.5 h was -3.32%. `CC(c1nc(C2CC2)no1)N1CCN(CC(=O)N2CCOCC2)CC1` (stereo not drawn) gave a cytotoxicity at 70.5 h of 0.558%. With `Cc1c(F)cccc1S(=O)(=O)NCCN` the cytotoxicity at 70.5 h was -0.256%. For `CN(Cc1ccc(Cl)s1)C(=O)COc1cccc(C(N)=O)c1`, the cytotoxicity at 70.5 h was -26.8%. Compound `Cc1ccc(C(NC(=O)CCNC(=O)c2ccoc2)C(F)(F)F)cc1` (stereo not drawn) has a cytotoxicity at 70.5 h of -0.123%. For `CCOC1COC2(CCN(Cc3ccc(F)cc3)CC2)C1` (stereo not drawn), the cytotoxicity at 70.5 h was -20.1%.
